Test results published in paper PMC6151984, “Novel Sulfamide-Containing Compounds as Selective Carbonic Anhydrase I Inhibitors” (Molecules : A Journal of Synthetic Chemistry and Natural …, 2017).

Tests used:
Assay in all cases: stopped-flow CO2 hydration assay
Format in all cases: biochemical
[1] = molecular target: T1, hCA II (Homo sapiens, UniProt P00918)
T1 construct: gene CA2; recombinant, obtained in-house; cytosolic
Text: stopped-flow CO2 hydration assay on hCA II

[2] = molecular target: T2, hCA IV (Homo sapiens, UniProt P22748)
T2 construct: gene CA4; recombinant, obtained in-house
Text: stopped-flow CO2 hydration assay on hCA IV

[3] = molecular target: T3, hCA I (Homo sapiens, UniProt P00915)
T3 construct: gene CA1; recombinant, obtained in-house; cytosolic
Text: stopped-flow CO2 hydration assay on hCA I

T3 sequence (P00915 2-261): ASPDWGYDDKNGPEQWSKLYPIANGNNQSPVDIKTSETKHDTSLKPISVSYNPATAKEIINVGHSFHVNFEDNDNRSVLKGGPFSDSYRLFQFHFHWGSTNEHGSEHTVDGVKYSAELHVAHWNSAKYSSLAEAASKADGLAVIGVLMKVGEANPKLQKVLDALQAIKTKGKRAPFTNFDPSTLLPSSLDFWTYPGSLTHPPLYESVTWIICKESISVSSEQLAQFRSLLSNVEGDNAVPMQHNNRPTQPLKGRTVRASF
T2 sequence (P22748 19-284): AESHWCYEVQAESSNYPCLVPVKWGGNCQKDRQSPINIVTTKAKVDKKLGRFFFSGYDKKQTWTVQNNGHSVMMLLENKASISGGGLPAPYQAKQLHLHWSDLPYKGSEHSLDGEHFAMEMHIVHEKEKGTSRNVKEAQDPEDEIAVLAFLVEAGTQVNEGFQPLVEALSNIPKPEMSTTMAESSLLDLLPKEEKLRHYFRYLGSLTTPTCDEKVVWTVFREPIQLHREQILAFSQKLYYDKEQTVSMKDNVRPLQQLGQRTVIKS

Work on `NS(=O)(=O)Nc1ccc(S(=O)(=O)N2CCCC(C(=O)N3CCN(C(c4ccc(F)cc4)c4ccc(F)cc4)CC3)C2)cc1` (stereo not drawn) [6l, (1-((4-Sulfamoylaminophenyl)sulfonyl)piperidin-3-yl)(4-(bis(4-fluorophenyl)methyl)piperazin-1-yl)methanone] yielded a Ki [1] of 786 nM, a Ki [2] of 467 nM and a Ki [3] of 326 nM.
In the case of `NS(=O)(=O)Nc1cccc(S(=O)(=O)NCCC(=O)N2CCN(C(c3ccccc3)c3ccccc3)CC2)c1` [6b, N-(3-(4-Benzhydrylpiperazin-1-yl)-3-oxopropyl)-3-(sulfamoylamino)benzenesulfonamide], the Ki [1] is reported as 419 nM, the Ki [2] is reported as 2360 nM and the Ki [3] is reported as 83.1 nM.
Work on `NS(=O)(=O)Nc1ccc(S(=O)(=O)N2CCCC(C(=O)N3CCN(C(c4ccccc4)c4ccccc4)CC3)C2)cc1` (stereo not drawn) [6i, (1-((4-Sulfamoylaminophenyl)sulfonyl)piperidin-3-yl)(4-benzhydrylpiperazin-1-yl)methanone] yielded a Ki [1] of 455 nM, a Ki [2] of 364 nM and a Ki [3] of 153 nM.
In the case of `NS(=O)(=O)Nc1cccc(S(=O)(=O)NCCC(=O)N2CCN(C(c3ccc(F)cc3)c3ccc(F)cc3)CC2)c1` [6e, N-(3-(4-(bis(4-Fluorophenyl)methyl)piperazin-1-yl)-3-oxopropyl)-3(sulfamoylamino)benzenesulfonamide], the Ki [1] is reported as 165 nM, the Ki [2] is reported as 423 nM and the Ki [3] is reported as 94 nM.
For `NS(=O)(=O)Nc1ccc(S(=O)(=O)NCCC(=O)N2CCN(C(c3ccccc3)c3ccccc3)CC2)cc1` [6c, N-(3-(4-Benzhydrylpiperazin-1-yl)-3-oxopropyl)-4-(sulfamoylamino)benzenesulfonamide], the Ki [1] was 439 nM, the Ki [2] was 124 nM and the Ki [3] was 75.4 nM.
`NS(=O)(=O)Nc1cccc(S(=O)(=O)N2CCCC(C(=O)N3CCN(C(c4ccc(F)cc4)c4ccc(F)cc4)CC3)C2)c1` (stereo not drawn) [6k, (1-((3-Sulfamoylaminophenyl)sulfonyl)piperidin-3-yl)(4-(bis(4-fluorophenyl)methyl)piperazin-1-yl)methanone] showed a Ki [1] of 753 nM, a Ki [2] of 1380 nM and a Ki [3] of 45.8 nM.
`NS(=O)(=O)Nc1cccc(S(=O)(=O)N2CCCC(C(=O)N3CCN(C(c4ccccc4)c4ccccc4)CC3)C2)c1` (stereo not drawn) [6h, 4(1-((3-Sulfamoylaminophenyl)sulfonyl)piperidin-3-yl)(4-benzhydrylpiperazin-1-yl)methanone] was tested, and the Ki [1] was 911 nM, the Ki [2] was 1620 nM and the Ki [3] was 71.4 nM.
Compound `NS(=O)(=O)Nc1ccc(S(=O)(=O)NCCC(=O)N2CCN(C(c3ccc(F)cc3)c3ccc(F)cc3)CC2)cc1` [6f, N-(3-(4-(bis(4-Fluorophenyl)methyl)piperazin-1-yl)-3-oxopropyl)-4-(sulfamoylamino)benzenesulfonamide] has a Ki [1] of 406 nM, a Ki [2] of 202 nM and a Ki [3] of 63.2 nM.
`NS(=O)(=O)Nc1ccccc1S(=O)(=O)N1CCCC(C(=O)N2CCN(C(c3ccc(F)cc3)c3ccc(F)cc3)CC2)C1` (stereo not drawn) [6j, (1-((2-Sulfamoylaminophenyl)sulfonyl)piperidin-3-yl)(4-(bis(4-fluorophenyl)methyl)piperazin-1-yl)methanone] was tested, and the Ki [1] was 6460 nM, the Ki [2] was 1500 nM and the Ki [3] was 2750 nM.
In the case of `NS(=O)(=O)Nc1ccccc1S(=O)(=O)N1CCCC(C(=O)N2CCN(C(c3ccccc3)c3ccccc3)CC2)C1` (stereo not drawn) [6g, (1-((2-Sulfamoylaminophenyl)sulfonyl)piperidin-3-yl)(4-benzhydrylpiperazin-1-yl)methanone], the Ki [1] is reported as 89.8 nM, the Ki [2] is reported as 314 nM and the Ki [3] is reported as 605 nM.
Work on `NS(=O)(=O)Nc1ccccc1S(=O)(=O)NCCC(=O)N1CCN(C(c2ccc(F)cc2)c2ccc(F)cc2)CC1` [6d, N-(3-(4-(bis(4-Fluorophenyl)methyl)piperazin-1-yl)-3-oxopropyl)-2(sulfamoylamino)benzenesulfonamide] yielded a Ki [1] of 189 nM, a Ki [2] of 117 nM and a Ki [3] of 660 nM.
`NS(=O)(=O)Nc1ccccc1S(=O)(=O)NCCC(=O)N1CCN(C(c2ccccc2)c2ccccc2)CC1` [6a, N-(3-(4-Benzhydrylpiperazin-1-yl)-3-oxopropyl)-2-(sulfamoylamino)benzenesulfonamide] gave a Ki [1] of 473 nM, a Ki [2] of 151 nM and a Ki [3] of 286 nM.
